Data from patent US10544154B2, “Opioid receptor antagonist prodrugs” (Nirsum Laboratories, Inc., priority 2017, dated 2020).
Converted amounts (≈) assume the structure as drawn.

How the values were obtained:
[1] = Equilibrium solubility in water (Table 10); settings: for solubility thermodynamic: water, 40 °C, thermodynamic from solid
[2] = Plasma stability, rat plasma (HPLC-MS); format: in vitro ADME; settings: 10 μM, 37° C.
Method: (§1) Plasma stability determination of the test compounds in rat, dog, cynomolgus monkey and human plasma is performed using HPLC-MS. For rat, incubations are carried out in 96-well polypropylene plates in 5 aliquots of 70 μL each (one for each time point). […] Five time points are analyzed (0, 15, 120, 480 and 1440 min). For dog, monkey and human, test compounds (2 μM, final solvent concentration 1%) were also incubated at 37° C. and analyzed at five time points (0, 10, 30, 60 and 120 min). All incubations are performed in duplicates. The samples are analyzed by HPLC-MS. The percentage of parent compound remaining after incubation in plasma is determined.

[3] = Solubility determination in oil (cottonseed oil, sesame oil), HPLC
Method: A known amount of test substance (˜40 mg) was weighed into the vial, 100 μL of oil was added and heated to 60° C. and then system was slurried to reach equilibrium. […] Then the clear solution was placed at room temperature (25° C.) for 24 h to confirm whether there was solid precipitation. Extra oil was added into the vial once compound precipitated out and then the system was re-equilibrated at 1000 rpm at room temperature (25° C.). Final concentration was determined by HPLC method as described below in Table 6a and 6b.

[4] = Polymorph screening of solid state drug substances; format: physicochemical; settings: for Dry method and appearance: after stirring at 50 °C for 72 hours; for XRPD results (Dried): dried solid
[5] = Plasma stability, cynomolgus monkey plasma (HPLC-MS); format: in vitro ADME; settings: 2 μM, 37° C.
Method: as §1, with “For dog, monkey and human, test compounds (2 μM, final solvent concentration 1%) were also incubated at 37° C. and analyzed at five time points (0, 10, 30, 60 and 120 min).” left out

[6] = Plasma stability, dog plasma (HPLC-MS); format: in vitro ADME; settings: 2 μM, 37° C.
Method: as §1

[7] = Plasma stability, human plasma (HPLC-MS); format: in vitro ADME; settings: 2 μM, 37° C.
Method: as §1, with “For dog, monkey and human, test compounds (2 μM, final solvent concentration 1%) were also incubated at 37° C. and analyzed at five time points (0, 10, 30, 60 and 120 min).” left out

[8] = Clinical observations for dogs in pharmacokinetic studies; format: in vivo, Beagle dogs; settings: right leg test article
Method: Weight monitoring was done every week.
The dose formulation (concentration—400 mg base equivalents/ml in sesame oil+1% benzyl alcohol, unless otherwise specified) was administered via deep intramuscularly (unless otherwise specified). The injection vehicle was also dosed via deep intramuscular route (unless otherwise specified) on contralateral site of each animal at study initiation. The animals were sedated with Propofol at 6 mg/kg via IV administration. Following sedation hair was carefully removed from around the injection site and the area gently cleaned. Care will be taken to avoid irritating skin during shaving and cleaning the injection site. Then dogs will be dosed with deep IM administration. At least 2.5 cm depth from the surface into the central aspect of the quadriceps or biceps femoris muscle, by angling the needle toward the femur. If the needle hits the femur, simply draws back slightly and then inject. The dose volume will be determined by the animals' body weight collected on the morning of dosing day. For repeated administration, the injection sites may be rotated to minimize tissue injury.

[9] = Heating Temp. 60 °C, Obs. Temp. 25 °C
[10] = Heating Temp. 40 °C, Obs. Temp. 40 °C
[11] = Heating Temp. 60 °C, Obs. Temp. 40 °C

C=C1CC[C@@]2(O)[C@H]3Cc4ccc(O)c5c4[C@@]2(CCN3CC2CC2)[C@H]1O5 [nalmefene, 17-cyclopropylmethyl-4,5α-epoxy-6-methylenemorphinan-3,14-diol]
solubility thermodynamic [1]: 0.025 mg/mL (≈ 73.7 µM)

C=C1CC[C@@]2(O)C3Cc4ccc(OC(=O)CCCCCCCCCCCCCCC)c5c4[C@@]2(CCN3CC2CC2)[C@H]1O5 [Compound 56, (4aS,7aS,12bS)-3-(cyclopropylmethyl)-4a-hydroxy-7-methylene-2,3,4,4a,5,6,7,7a-octahydro-1H-4,12-methanobenzofuro[3,2-e]isoquinolin-9-yl palmitate, reference compound]
solubility thermodynamic [1]: 0.0066 mg/mL (≈ 11.4 µM)
% remaining at time point in minutes, 0 min [2]: 100%

CCCCCCCC/C=C/CCCCCCCC(=O)OCOc1ccc2c3c1O[C@H]1C(=O)CC[C@@]4(O)C(C2)N(CC2CC2)CC[C@]314 [Compound 26, (((4aS,7aR,12bS)-3-(cyclopropylmethyl)-4a-hydroxy-7-oxo-2,3,4,4a,5,6,7,7a-octahydro-1H-4,12-methanobenzofuro[3,2-e]isoquinolin-9-yl)oxy)methyl (E)-octadec-9-enoate]
Approximate Solubility in Excipient: Cottonseed oil [3, 9]: 204.3 to 239 mg/mL

C=C1CC[C@@]2(O)C3Cc4ccc(OC(=O)CCC5CCCC5)c5c4[C@@]2(CCN3CC2CC2)[C@H]1O5 [Compound 39, (4aS,7aS,12bS)-3-(cyclopropylmethyl)-4a-hydroxy-7-methylene-2,3,4,4a,5,6,7,7a-octahydro-1H-4,12-methanobenzofuro[3,2-e]isoquinolin-9-yl 3-cyclopentylpropanoate]
Approximate Solubility in Excipient: Cottonseed oil [3, 10]: 225 to 402.2 mg/mL

CCCCCCCCCCCCCCCCOC(=O)Oc1ccc2c3c1O[C@H]1C(=O)CC[C@@]4(O)C(C2)N(CC2CC2)CC[C@]314 [Compound 21, (4aS,7aR,12bS)-3-(cyclopropylmethyl)-4a-hydroxy-7-oxo-2,3,4,4a,5,6,7,7a-octahydro-1H-4,12-methanobenzofuro[3,2-e]isoquinolin-9-yl hexadecyl carbonate]
Dry method and appearance ([4]; Acetone): Evaporation/white powder
XRPD results (Dried) ([4]; Acetone): Pattern A
Dry method and appearance ([4]; EtOAc): Evaporation/white powder
XRPD results (Dried) ([4]; EtOAc): Pattern A
Dry method and appearance ([4]; Heptane): Evaporation/white powder
XRPD results (Dried) ([4]; Heptane): Pattern A
Dry method and appearance ([4]; Isopropanol): Evaporation/white powder
XRPD results (Dried) ([4]; Isopropanol): Pattern A
Dry method and appearance ([4]; MTBE): Evaporation/white powder
XRPD results (Dried) ([4]; MTBE): Pattern A
Approximate Solubility in Excipient: Cottonseed oil [3, 11]: 101 to 134.8 mg/mL
Approximate Solubility in Excipient: Sesame oil [3, 11]: 101 to 134.5 mg/mL
% remaining at time point in minutes, 0 min [2]: 100%

C=C1CC[C@@]2(O)C3Cc4ccc(OC(=O)CCCCCCC/C=C\C/C=C\CCCCC)c5c4[C@@]2(CCN3CC2CC2)[C@H]1O5 [Compound 37, (4aS,7aS,12bS)-3-(cyclopropylmethyl)-4a-hydroxy-7-methylene-2,3,4,4a,5,6,7,7a-octahydro-1H-4,12-methanobenzofuro[3,2-e]isoquinolin-9-yl (9Z,12Z)-octadeca-9,12-dienoate]
Approximate Solubility in Excipient: Cottonseed oil [3, 9]: 68.5 to 82 mg/mL

CCCCC/C=C\C/C=C\CCCCCCCC(=O)Oc1ccc2c3c1O[C@H]1C(=O)CC[C@@]4(O)C(C2)N(CC2CC2)CC[C@]314 [Compound 53, (4aS,7aR,12bS)-3-(cyclopropylmethyl)-4a-hydroxy-7-oxo-2,3,4,4a,5,6,7,7a-octahydro-1H-4,12-methanobenzofuro[3,2-e]isoquinolin-9-yl (9Z,12Z)-octadeca-9,12-di.enoate]
Approximate Solubility in Excipient: Cottonseed oil [3, 9]: >408.5 mg/mL
Approximate Solubility in Excipient: Sesame oil [3, 9]: >401.9 mg/mL
Approximate Solubility in Excipient: Sesame oil [3, 11]: >406.3 mg/mL
% remaining at time point in minutes, 0 min [2]: 100%
% remaining at time point in minutes, 480 min [2]: 7.3%
% remaining at time point in minutes, 1440 min [2]: 1.9%

CCCCCCCCCCCC(=O)OCN1C(=O)CCc2ccc(OCCCCN3CCN(c4cccc(Cl)c4Cl)CC3)cc21 [Aripiprazole Lauroxil, reference compound]
% remaining at time point in minutes, 0 min [5]: 100%
% remaining at time point in minutes, 0 min [6]: 100%
% remaining at time point in minutes, 0 min [7]: 100%
% remaining at time point in minutes, 120 min ([7]; 120 min): 80%
% remaining at time point in minutes, 0 min [2]: 100%
% remaining at time point in minutes, 15 min [2]: 84%
% remaining at time point in minutes, 1440 min [2]: 46%

CCCCCCCCCCCCCCCC(=O)OC1CCCn2c1nc(C)c(CCN1CCC(c3noc4cc(F)ccc34)CC1)c2=O (centres unmarked) [Paliperidone palmitate, reference compound]
% remaining at time point in minutes, 0 min [5]: 100%
% remaining at time point in minutes, 15 min ([5]; 15 min): 92%
% remaining at time point in minutes, 0 min [6]: 100%
% remaining at time point in minutes, 0 min [7]: 100%

C=C1CC[C@@]2(O)C3Cc4ccc(OC(=O)CCCCCCCCCCC)c5c4[C@@]2(CCN3CC2CC2)[C@H]1O5 [Compound 59, (4aS,7aS,12bS)-3-(cyclopropylmethyl)-4a-hydroxy-7-methylene-2,3,4,4a,5,6,7,7a-octahydro-1H-4,12-methanobenzofuro[3,2-e]isoquinolin-9-yl dodecanoate, reference compound]
Equilibrium solubility Water [1, 10]: <0.001 mg/mL
Approximate Solubility in Excipient: Cottonseed oil [3, 9]: >414 mg/mL
Approximate Solubility in Excipient: Sesame oil [3, 9]: >393.3 mg/mL
% remaining at time point in minutes, 0 min [2]: 100%
% remaining at time point in minutes, 15 min [2]: 5.9%
% remaining at time point in minutes, 120 min ([2]; 120 min): 0.7%
% remaining at time point in minutes, 480 min [2]: 0.2%
% remaining at time point in minutes, 1440 min [2]: 0%

C=C1CC[C@@]2(O)C3Cc4ccc(OC(=O)OCCCCCCCCCCCCCCCC)c5c4[C@@]2(CCN3CC2CC2)[C@H]1O5 [Compound 19, (4aS,7aS,12bS)-3-(cyclopropylmethyl)-4a-hydroxy-7-methylene-2,3,4,4a,5,6,7,7a-octahydro-1H-4,12-methanobenzofuro[3,2-e]isoquinolin-9-yl hexadecyl carbonate]
Dry method and appearance ([4]; Acetone): Evaporation/white powder
XRPD results (Dried) ([4]; Acetone): Pattern A
Dry method and appearance ([4]; EtOAc): Evaporation/white powder
XRPD results (Dried) ([4]; EtOAc): Pattern A
Dry method and appearance ([4]; Heptane): Evaporation/white powder
XRPD results (Dried) ([4]; Heptane): Pattern A
Dry method and appearance ([4]; Isopropanol): Evaporation/white powder
XRPD results (Dried) ([4]; Isopropanol): Pattern A
Dry method and appearance ([4]; MTBE): Evaporation/white powder
XRPD results (Dried) ([4]; MTBE): Pattern A
% remaining at time point in minutes, 0 min [2]: 100%

C=C1CC[C@@]2(O)C3Cc4ccc(OC(=O)CCCCCCC/C=C/CCCCCCCC)c5c4[C@@]2(CCN3CC2CC2)[C@H]1O5 [Compound 15, (4aS,7aS,12bS)-3-(cyclopropylmethyl)-4a-hydroxy-7-methylene-2,3,4,4a,5,6,7,7a-octahydro-1H-4,12-methanobenzofuro[3,2-e]isoquinolin-9-yl (E)-octadec-9-enoate]
% remaining at time point in minutes, 0 min [5]: 100%
% remaining at time point in minutes, 0 min [6]: 100%
% remaining at time point in minutes, 0 min [7]: 100%
% remaining at time point in minutes, 1440 min ([7]; 1440 min): 109.6%
% remaining at time point in minutes, 0 min [2]: 100%
% remaining at time point in minutes, 15 min [2]: 72%
% remaining at time point in minutes, 480 min [2]: 52%
% remaining at time point in minutes, 1440 min [2]: 35%
Clinical observations, R-TA ([8]; 48 mg/kg, Day 35, dogs D1001, D1002, D1003): rashes subside on the leg
Clinical observations, R-TA ([8]; Day 7, dogs D1501, D1502, D1503, dose not given): Swelling 8 * 4 cm
